# Literature values as cited in patent US20220249637A1, “COMBINATION THERAPY OF A CELL-MEDIATED CYTOTOXIC THERAPY AND AN INHIBITOR OF A PROSURVIVAL BCL2 FAMILY PROTEIN” (Juno Therapeutics, Inc., priority 2019, published 2022).
# Assays:
# [1] = test system: CD3+CD4+ and CD3+CD8+ T cells; settings: mouse, in vivo; cited from earlier work
# CD3+ cells = settings: human, in vivo; cited from earlier work
substance,measurement,setting,value
navitoclax,CD3+CD4+ and CD3+CD8+ T cells in the peripheral blood,[1],induced a relative and absolute reduction
same,average decrease of CD3+ cells,CD3+ cells,241 cells/μL
same,decrease in T cells at final visits,CD3+ cells,maintained
